Source: patent publication US20230181553A1, “COMPOSITION FOR HAIR IMPROVEMENT” (Dr. Cherry Inc., priority 2020, published 2023)

Assays:
hair thinning = experiment: Scalp improvement effect in nine regions in androgenetic alopecia patients (rating of hair growth effect); type: in vivo, human; settings: four AGA male patients, oral 5 mg once a day, 2 months
Text: In this example, the scalp was divided into nine regions to observe the effect of the treatment therein. In this manner, even when each patient has both a good portion (portion having a large hair volume) and a poor portion (portion having a small hair volume), influence on the good portion and influence on the poor portion can be separately evaluated, and thus, it can be expected that highly accurate evaluation can be realized. Subjects were four androgenetic alopecia (AGA) male patients (of 42 to 63 years old) having aggravated as compared with a state 1 year ago. Two patients out of these patients had continuously taken Finasteride, an anti-androgen agent, respectively from 4 years ago and 7 years ago, and continuously took it after starting the following treatment. In this example, pioglitazone, that is a PPARγ agonist, was orally administered to these patients. […] A photograph of each patient taken from directly above 10 to 12 months before starting the treatment of this example, a photograph taken on the day of starting the treatment, and a photograph taken after 2 months from the start of the treatment were evaluated. […] A hair growth effect was evaluated by the 5 medical specialists in accordance with the following rating. […]

scalp = experiment: Change in hair thickness after application of pioglitazone suspension to half side of the scalp with electroporation; type: in vivo, human
Procedure: As pioglitazone, a 15 mg pioglitazone tablet “NP” was used. One pioglitazone tablet was ground in a mortar, and the resultant was suspended in 3 mL of water for injection PL “FUSO” for use. Subjects were three female patients (patients). In each of the patients, lines were extended from both outer canthi toward the head, two points on these lines crossing a line extended between the both ears through the vertex were tattooed with an India ink, and a portion around the marked center was photographed under the same conditions. A suspension of pioglitazone was applied to the entire of half side of the scalp. In order to increase penetration, pioglitazone was caused to penetrate through the skin with META-TDS, Electroporation Machine (CTP-802, Grand Aespio Inc., Korea) at an output of 3 V/6 mA {actually measured value}. This treatment was performed at a frequency of once every two weeks 12 times (namely, for 6 months). The test sites were away from the midline of the head by 51 mm on average on both left and right sides. After 6 months from the start of the treatment (after performing the treatment 12 times), Dermo Prime, dpharris (CHOWIS, Korea) was used to import data of two images of each test site into a computer as digital images, and in each image, three hairs having the largest thickness (6 hairs in two images of each test site) were selected to automatically measure the thickness. An average value of the tested values (hair thickness: mm) was used for graphing. Specifically, assuming that the thickness before the treatment was 100, the thickness after the treatment was indicated as a rate. Regarding a patient group in which the treatment was performed on a half side, a difference between before and after the treatment and a difference between the left and right-side portions were compared.

Q: `CCc1ccc(CCOc2ccc(CC3SC(=O)NC3=O)cc2)nc1` (centres unmarked) [pioglitazone] was tested. Which “hair thinning in a site having a high degree of aggravation” value (hair thinning) did it give?
A: The value was “trends toward improvement were observed”.

Q: What about the “progress of hair thinning” value (hair thinning; rating by 5 medical specialists, FIG. 7B) of the same compound?
A: Its value is “the progress of hair thinning was at least stopped”.

Q: And the “hair thickness on treated side compared with negative control” value (scalp; 15 mg tablet suspended in 3 mL water, half side of scalp, once every two weeks 12 times, 1 month to 6 months after treatment, three female patients)?
A: The value was “increased in the thickness”.

Q: And the “change rate of hair thickness on treated side vs change rate in negative control” value (scalp; half side treatment, 6 months, FIG. 1 lower panel)?
A: Its value is “higher than the change rate obtained in the negative control”.

Q: And the “growing rate of hair (particularly anagen-stage hair)” value (scalp; modification of the scalp with pioglitazone)?
A: The value was “improvement of a growing rate of hair”.
